{
  "source": "paper PMC10861593",
  "about": "“Kisspeptin-10 binding to Gpr54 in osteoclasts prevents bone loss by activating Dusp18-mediated dephosphorylation of Src” (Nature Communications, 2024)",
  "key": {"[1]": {"system": "Dusp18 / Gpr54 interaction", "experiment": "Co-IP: interaction of Dusp18 with Gpr54 in RAW264.7 cells", "format": "cell-based, mouse", "experimental": "Beads were analyzed by phosphatase activity assay (a), mass spectrometry assay (b), IB analysis (c) and quantification of protein levels (d). e, f Protein co-localization was analyzed by IF staining in primary pre-osteoclast with 10 nM Kp-10 treatment for 20 min. […] Scale bar, 50 µm. g, h binding affinity was measured by SPR binding analysis. […] Data represent means ± SEM. P values were determined by one-way ANOVA analysis (a, d, j, l) or two-tailed Student’s t-test (f). Representative results were obtained from at least three independent experiments. Source data are provided as a Source Data file.\n(§1) Whole-cell proteins were extracted using 1x RIPA buffer (25 mM Tris, pH7.5, 150 mM NaCl, 0.5% Sodium deoxycholate, 1% Triton-X-100) supplemented with protease inhibitors (Complete Mini, Roche) and phosphatase inhibitors (phosphatase inhibitor cocktail set I and II, Calbiochem). Immunoprecipitation and immunoblotting with indicated antibodies were performed as described in Supplementary Table 1. Image Jsoftware (V1.52) was used for quantification analysis. Uncropped and unprocessed blots are presented in the Supplementary Information file."}, "Dusp18 expression": {"system": "Dusp18 expression", "experiment": "WB of Dusp18 protein expression in RAW264.7 cells", "format": "cell-based, mouse", "excerpt": "Anti-Flag IP of lysates derived from 293 T cells transfected with GPR54-flag and Src-HA constructs (d) and quantification results (e). Anti-Flag IP of lysates derived from 293 T cells transfected with GPR54-flag and DUSP18-HA constructs (f) and quantification results (g). Anti-Flag IP of lysates derived from 293 T cells transfected with Src-HA, and DUSP18-flag constructs (h) and quantification results (i). j, k IB analysis of lysates derived from WT BMMs and Gq/11 KO BMMs with or without Kp-10 treatment for 1 h (j) and quantification of results (k). l Working model of Kp-10 /Gpr54 mediated Src dephosphorylation. […] However, both active Src and DUSP18 were recruited by GPR54 through the PR motif in GPR54 CT along with the increase of Kp-10 dose (1, 10 nM). […] Data represent means ± SEM. P values were determined by one-way ANOVA analysis (b, c, e, g, i, k). Representative results were obtained from at least three independent experiments. Source data are provided as a Source Data file.\nas §1\nSupplementary Fig. 7 a-b IB and quantification of Dusp18 protein level induced by indicated dose of Kp-10 for 1 hour in RAW264.7 cells (a) and quantification of protein levels (b) or induced by Kp-10 (1nM) for 1 hour in RAW264.7 transfected with ERK1/2 siRNA. Error bars are ± SEM. P-values were determined by one-way ANOVA analysis (b). ****P <0.0001. “ns” means no significant difference. Representative results were observed from at least three independent experiments. Source data are provided as a Source Data file."}, "OVX mice": {"system": "OVX mice", "experiment": "OVX-induced bone loss model (and sham-operated mice)", "format": "in vivo, mouse", "settings": "in vivo, OVX-induced bone loss model", "excerpt": "Fig. 7 Kp-10 ameliorated OVX-induced bone loss. a, c Representative micro-CT images of femoral trabecular bone (a) and cortical bone (c). Female C57 mice treated with vehicle (Sham) or 50 nmol/kg (DSS)*6-Kp-10, ovariectomized mice (OVX) treated with vehicle or 50nmol/kg (DSS)*6-Kp-10 twice one week by intraperitoneal injection (n = 6 per group). Scale bar, 500 µm. b, d Parameter analysis of femurs from the mice above. BMD bone mineral density, BV/TV bone volume as a fraction of total bone volume, Tb.Th trabecular thickness, Tb.N trabecular number, Tb.Sp trabecular separation. e Representative TRAP staining images of femurs from Fig. 7a. f Histomorphometry analysis of the femurs from Fig. 7a. Oc.S/BS osteoclast surface per bone surface, N.Oc/B.Pm osteoclast bone surface density, ES/BS eroded surface per bone surface. Data represent means ± SEM. P values were determined by one-way ANOVA analysis (b, d, f). Representative results were obtained from at least three independent experiments. Source data are provided as a Source Data file.\n3D micro-CT analyses were performed as previously described. We scanned the femur using in vitro X-ray microtomography (Skyscan 1272, Bruker micro CT) at a pixel size of 9 µm, and analyzed the results according to the manufacturer’s instructions. Region-of-interest (ROI) was defined from 10 to 110 image slices, where the growth plate slice was defined as 0 mm. The contrast was defined from 68–255; 3D analysis, BMD, and 3D models were analyzed using CTAn software (Bruker micro CT). 3D models were adjusted in CT Vox software (Bruker micro CT).\nBone tissue was removed of excess tissues and fixed with 4% formalin, decalcified with 0.5 M EDTA for 10–14 days, embedded with paraffin, sectioned, and stained using the TRAP staining kit (Sigma-Aldrich, 387A-1KT). The third lumbar spine vertebrae (L3) were fixed with 4% formalin, sectioned, and subjected to Von Kossa staining as described previously[60],[61]. For double calcian labeling assay, 4−5 week-old mice were administrated calcian (30 μg/mL) through intraperitoneal injection for the first time and the second time after 10 days. The third lumbar spine vertebrae (L3) were fixed with 4% formalin, sectioned, and subjected to Goldner’s Masson trichrome staining, or acquisition of fluorescence images. Histomorphometric measurements were made using the OsteoMeasure Analysis System (Osteometrics, Atlanta, GA, USA) according to standard criteria.\nFor animal studies in vivo, mice were randomized for weight. For the OVX-induced bone loss model, 2-month-old female C57BL/6 mice were sham-operated (sham) or ovariectomized (OVX) and randomly divided into indicated groups. Vehicle, Kp-10 or (DSS)*6-Kp-10 was injected into the tail vein twice per week. After two months of treatment, the femurs and the L3 lumbrae were isolated for micro-CT or histomorphometric analysis. 3D micro-CT analyses were performed according to a standard protocol. BMD and bone volume were analyzed by CT-analysis software (CTAn, Bruker micro CT, Kontich, Belgium) and images were reconstituted by CT-volume software (CTvol, skyscan, CTAn, Bruker micro CT, Kontich, Belgium).\nSupplementary Fig. 16 a Representative image of Von Kossa staining of sham-operated female C57 mice treated with vehicle (Sham, n=4), ovariectomized mice (OVX, n=3), and OVX mice treatment with 1 nmol/kg Kp-10 (n=6),10 nmol/kg Kp-10 (n=6),1 nmol/kg (DSS)*6-Kp-10 (n=5) or 10 nmol/kg (DSS)*6-Kp-10 (n=6) twice one week by intraperitoneal injection for two months. […]"}},
  "note": "Entries after “also recorded” stand apart in the source; their conditions may differ.",
  "data": [
    {"substance": "Kisspeptin-10 [Kp-10]", "values": [
      {"measurement": "recruitment of Src and Dusp18 by Gpr54, 10 nM", "setting": "[1]; 10 nM Kp-10, Co-IP and IF", "result": "more significantly recruited"},
      {"measurement": "interaction of Dusp18 with Gpr54", "setting": "[1]; RAW264.7 cells, indicated dose of Kp-10 for 20 min", "result": "dose-dependently induced the interaction of Dusp18 with Gpr54"},
      {"measurement": "protein level of Dusp18 upon ERK1/2 siRNA", "setting": "Dusp18 expression; RAW264.7, ERK1/2 siRNA, Kp-10 (1 nM) 1 h", "result": "cannot be obviously up-regulated"},
      {"measurement": "expression of Dusp18 (protein), 10 nM", "setting": "Dusp18 expression; RAW264.7, Kp-10 10 nM for 1 h", "result": "not by 10 nM Kp-10"},
      {"measurement": "expression of Dusp18 (protein), 0.1 and 1 nM", "setting": "Dusp18 expression; RAW264.7, Kp-10 0.1, 1 nM for 1 h", "result": "obviously upregulated the expression of Dusp18; also recorded: induced the expression of Dusp18 obviously"},
      {"measurement": "bone loss / bone protection in vivo (summary statement)", "setting": "OVX mice", "result": "abrogated bone loss by suppressing osteoclast activity in vivo"}
    ]}
  ]
}
